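Results reflect a 48-hour exposure of cells in 96-well plates to compound at five concentrations. Here, GI50 denotes the concentration required for 50% inhibition of growth.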 Active and inactive are the calls of the source. Cut-off read from the data, not from the text of the source: active = GI50 up to about 1.1 µM and inactive = higher.
Key:
Experiment in all cases: DTP human tumour cell line panel, 48 h
SR = tested on: SR
SN12C = tested on: SN12C
MOLT-4 = tested on: MOLT-4
NCI-H226 = tested on: NCI-H226
UACC-62 = tested on: UACC-62
786-0 = tested on: 786-0
DLD-1 = tested on: DLD-1
HCT-116 = tested on: HCT-116
NCI-H460 = tested on: NCI-H460
U-251 = tested on: U-251
CAKI-1 = tested on: CAKI-1
SK-MEL-28 = tested on: SK-MEL-28
CCRF-CEM = tested on: CCRF-CEM
SF-268 = tested on: SF-268
HCT-15 = tested on: HCT-15
T47D = tested on: T47D
OVCAR-5 = tested on: OVCAR-5
HOP-92 = tested on: HOP-92
LOX IMVI = tested on: LOX IMVI
Hs-578T = tested on: Hs-578T

Compound	GI50 (SR)	GI50 (SN12C)	GI50 (MOLT-4)	GI50 (NCI-H226)	GI50 (UACC-62)	GI50 (786-0)	GI50 (DLD-1)	GI50 (HCT-116)	GI50 (NCI-H460)	GI50 (U-251)	GI50 (CAKI-1)	GI50 (SK-MEL-28)	GI50 (CCRF-CEM)	GI50 (SF-268)	GI50 (HCT-15) [µM]	GI50 (T47D)	GI50 (OVCAR-5)	GI50 (HOP-92)	GI50 (LOX IMVI)	GI50 (Hs-578T)
CSc1nsc(-c2ccccc2)[s+]1.[O-][Cl+3]([O-])([O-])[O-]	> 100 µM (inactive)	> 100 µM (inactive)	> 100 µM (inactive)	> 100 µM (inactive)	> 100 µM (inactive)	> 100 µM (inactive)	> 100 µM (inactive)	> 100 µM (inactive)	> 100 µM (inactive)	> 100 µM (inactive)	> 100 µM (inactive)	> 100 µM (inactive)	> 100 µM (inactive)	> 100 µM (inactive)	> 100	–	–	–	–	–
O=C1CSC(/C(=C\c2ccc(Cl)cc2)c2nc3ccccc3[nH]2)=N1	36.3 µM (inactive)	17.8 µM (inactive)	51.8 µM (inactive)	6.93 µM (inactive)	18.7 µM (inactive)	13.6 µM (inactive)	16.3 µM (inactive)	16 µM (inactive)	13.3 µM (inactive)	12.3 µM (inactive)	8.79 µM (inactive)	15.7 µM (inactive)	27.6 µM (inactive)	5.08 µM (inactive)	22.8	13.9 µM (inactive)	17 µM (inactive)	12.4 µM (inactive)	15.8 µM (inactive)	18.7 µM (inactive)
O=C(N/C(=C\c1cc(Cl)ccc1Cl)c1nc2c(O)nc(S)nc2[nH]1)c1ccccc1	25.5 µM (inactive)	30.1 µM (inactive)	16.1 µM (inactive)	> 100 µM (inactive)	19.7 µM (inactive)	17.5 µM (inactive)	15.2 µM (inactive)	7.91 µM (inactive)	34.5 µM (inactive)	32.1 µM (inactive)	38.5 µM (inactive)	28.1 µM (inactive)	13.4 µM (inactive)	33.4 µM (inactive)	17.2	–	> 100 µM (inactive)	> 44.6 µM (inactive)	22.1 µM (inactive)	–
O=C(Nc1ccc(Sc2ccc(/N=N/c3c(O)c(S(=O)(=O)O)cc4cc(S(=O)(=O)O)ccc34)cc2)cc1)c1ccc(/N=N/c2c(O)c(S(=O)(=O)O)cc3cc(S(=O)(=O)O)ccc23)cc1	10.9 µM (inactive)	26.9 µM (inactive)	9.25 µM (inactive)	39.3 µM (inactive)	22.2 µM (inactive)	43.6 µM (inactive)	51.1 µM (inactive)	29.8 µM (inactive)	14.5 µM (inactive)	35.2 µM (inactive)	37.4 µM (inactive)	32.1 µM (inactive)	21.2 µM (inactive)	38.7 µM (inactive)	14.9	–	47.2 µM (inactive)	30.5 µM (inactive)	18.5 µM (inactive)	–
CCOc1ccc(NC(=O)C(=O)CC(=O)c2sc(NNC(C)=O)nc2C)cc1	> 100 µM (inactive)	> 100 µM (inactive)	> 100 µM (inactive)	> 100 µM (inactive)	> 100 µM (inactive)	–	> 100 µM (inactive)	> 100 µM (inactive)	> 100 µM (inactive)	> 100 µM (inactive)	> 100 µM (inactive)	> 100 µM (inactive)	> 100 µM (inactive)	> 100 µM (inactive)	> 100	–	> 100 µM (inactive)	> 100 µM (inactive)	> 100 µM (inactive)	–
Cc1c(C(=O)/C=C/c2ccccc2[N+](=O)[O-])[n+]([O-])c2ccccc2[n+]1[O-]	4.34 µM (inactive)	6 µM (inactive)	5.5 µM (inactive)	11.4 µM (inactive)	–	5.53 µM (inactive)	3.53 µM (inactive)	3.96 µM (inactive)	4.32 µM (inactive)	15.2 µM (inactive)	3.61 µM (inactive)	11.7 µM (inactive)	–	–	3.3	–	13.7 µM (inactive)	13.6 µM (inactive)	–	–
CC1c2ccccc2Cn2cc3c(c21)C(=O)c1cccc(OP(=O)(O)OCc2ccccc2)c1C3=O (configuration not stated)	> 66.5 µM (inactive)	> 100 µM (inactive)	> 100 µM (inactive)	> 100 µM (inactive)	> 100 µM (inactive)	> 100 µM (inactive)	> 100 µM (inactive)	> 100 µM (inactive)	> 100 µM (inactive)	> 100 µM (inactive)	> 82.8 µM (inactive)	> 100 µM (inactive)	> 56 µM (inactive)	> 100 µM (inactive)	> 100	51.6 µM (inactive)	> 100 µM (inactive)	> 100 µM (inactive)	> 100 µM (inactive)	> 100 µM (inactive)
C/C(=N/NC(N)=S)c1ccc2ccccc2c1	74.5 µM (inactive)	32.7 µM (inactive)	21.9 µM (inactive)	39.8 µM (inactive)	9.42 µM (inactive)	–	21.2 µM (inactive)	23.8 µM (inactive)	24.2 µM (inactive)	24.8 µM (inactive)	–	36.1 µM (inactive)	22.5 µM (inactive)	23.3 µM (inactive)	22.2	–	24 µM (inactive)	> 100 µM (inactive)	39.8 µM (inactive)	–
COc1ccc(-c2cc3[nH]nc(N)c3c(=O)o2)cc1	> 100 µM (inactive)	> 100 µM (inactive)	> 100 µM (inactive)	–	–	–	> 100 µM (inactive)	> 100 µM (inactive)	> 100 µM (inactive)	89.9 µM (inactive)	73.6 µM (inactive)	> 100 µM (inactive)	> 100 µM (inactive)	81.3 µM (inactive)	> 100	–	> 100 µM (inactive)	> 100 µM (inactive)	> 100 µM (inactive)	–
Cc1cc(Cl)ccc1NC(=O)CC1SC(NC(=O)c2ccccc2Cl)=NC1=O (configuration not stated)	15.3 µM (inactive)	17.7 µM (inactive)	2.89 µM (inactive)	25.2 µM (inactive)	27.1 µM (inactive)	19 µM (inactive)	19.1 µM (inactive)	17.9 µM (inactive)	> 100 µM (inactive)	15.7 µM (inactive)	19.2 µM (inactive)	22 µM (inactive)	2.86 µM (inactive)	16.9 µM (inactive)	19.1	–	27.9 µM (inactive)	18.8 µM (inactive)	21.9 µM (inactive)	–
COC(=O)CC1(O)C(=O)OCc2c1cc1n(c2=O)Cc2c-1nc1ccccc1c2OC (configuration not stated)	< 0.01 µM (active)	0.097 µM (active)	0.017 µM (active)	0.115 µM (active)	0.0869 µM (active)	0.136 µM (active)	27.4 µM (inactive)	0.388 µM (active)	0.0185 µM (active)	0.0964 µM (active)	0.0673 µM (active)	27.5 µM (inactive)	< 0.0171 µM (active)	0.133 µM (active)	4.61	–	0.902 µM (active)	12.3 µM (inactive)	0.0993 µM (active)	–
Oc1ccc(C2Oc3cc(O)cc4c3C2c2cc(O)cc3c2C(c2cc(O)cc5c2C4C(c2ccc(O)cc2)O5)C(c2ccc(O)cc2)O3)cc1 (configuration not stated)	6.35 µM (inactive)	8.05 µM (inactive)	6.89 µM (inactive)	6.19 µM (inactive)	> 25 µM (inactive)	14.2 µM (inactive)	> 25 µM (inactive)	7.48 µM (inactive)	12.6 µM (inactive)	6.32 µM (inactive)	> 25 µM (inactive)	5.28 µM (inactive)	5.78 µM (inactive)	5.12 µM (inactive)	> 25	–	> 25 µM (inactive)	3.94 µM (inactive)	7.05 µM (inactive)	–
Cc1ccc(NCCO)cc1	> 100 µM (inactive)	> 100 µM (inactive)	85.1 µM (inactive)	> 100 µM (inactive)	> 100 µM (inactive)	> 100 µM (inactive)	> 100 µM (inactive)	> 100 µM (inactive)	> 100 µM (inactive)	> 100 µM (inactive)	> 100 µM (inactive)	> 100 µM (inactive)	> 100 µM (inactive)	> 100 µM (inactive)	> 100	–	> 100 µM (inactive)	97.1 µM (inactive)	> 100 µM (inactive)	–
CC(C)(CN1CCOCC1)C(=O)/C=C/c1ccc(/C=C/C(=O)C(C)(C)CN2CCOCC2)cc1	–	1.35 µM (inactive)	0.281 µM (active)	2.29 µM (inactive)	1.56 µM (inactive)	2 µM (inactive)	0.338 µM (active)	0.408 µM (active)	3.5 µM (inactive)	1.24 µM (inactive)	1.4 µM (inactive)	1.77 µM (inactive)	1.36 µM (inactive)	1.59 µM (inactive)	0.297	–	1.8 µM (inactive)	2.33 µM (inactive)	0.393 µM (active)	–
